Reference: PubChem BioAssay (NCI)
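Following 48 hours of exposure in 96-well plates, responses at five concentrations were used to interpolate endpoints linearly. At the GI50, growth is halved. Definition used: TGI = concentration required for complete inhibition of growth.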

What was measured:
Assay in all cases: NCI anticancer screen, dose series, 48 h
[1] = tested on: A498 renal
[2] = tested on: HL-60(TB) leukemia
[3] = tested on: HOP-92 NSCLC
[4] = tested on: LOX IMVI melanoma
[5] = tested on: M14 melanoma
[6] = tested on: NCI-H522 lung
[7] = tested on: OVCAR-3 ovarian
[8] = tested on: OVCAR-5 ovarian
[9] = tested on: SF-268 CNS
[10] = tested on: U251 CNS

SMILES	TGI [1] [µM]	TGI [2] [µM]	TGI [3] [µM]	TGI [4] [µM]	TGI [5] [µM]	TGI [6] [µM]	TGI [7] [µM]	TGI [8] [µM]	TGI [9] [µM]	TGI [10] [µM]	GI50 [1] [µM]	GI50 [2] [µM]	GI50 [3] [µM]	GI50 [4] [µM]	GI50 [5] [µM]	GI50 [6] [µM]	GI50 [7] [µM]	GI50 [8] [µM]	GI50 [9] [µM]	GI50 [10] [µM]
CC1(C)COC2C(N(Cc3ccccc3)Cc3ccccc3)C(=O)N21 (stereo unspecified)	> 100	62.9	80.5	> 100	56.2	45.6	> 100	> 100	82.1	70.8	–	–	–	–	–	–	–	–	–	–
CCCc1nc(Cl)nc(Cl)c1Cl	7.53	0.359	0.532	1.62	1.13	1.26	0.534	1.74	4.17	2.05	–	–	–	–	–	–	–	–	–	–
CCOC(=O)c1sc(-c2ccc(OS(=O)(=O)C[C@]34CCC(CC3=O)C4(C)C)c(C=O)c2)nc1C	1.17	3.29	3.7	2.34	2.45	2.89	2.72	2.68	2.47	1.43	0.127	1.27	0.951	1.05	1.09	1.02	0.904	0.97	0.954	0.694
COc1ccc(O)c(C(=O)CCC(=O)O)c1	> 100	> 100	> 100	> 100	> 10	> 100	> 10	> 100	> 100	> 100	–	–	–	–	–	–	–	–	–	–
CCC1=CCN(c2cc(C)ccn2)OC1c1ccccc1 (stereo unspecified)	–	41.8	–	> 100	> 100	62.1	> 100	> 100	> 100	46.2	–	–	–	–	–	–	–	–	–	–
COc1ccc(-c2nc(-c3nc4cc(Cl)c(F)cc4[nH]3)c3ccccn23)cc1	> 100	> 100	> 100	> 100	> 100	> 100	> 100	> 100	> 100	> 100	2.31	4.97	3.24	5.36	5.15	4.39	8.75	> 100	9.11	6.67
COc1cc2c(c3c1c(=O)c1ccccc1n3C)C=CC(C)(C)O2	–	> 100	> 100	> 100	> 100	50.7	> 100	> 100	> 100	> 100	–	–	–	–	–	–	–	–	–	–
COc1ccc(Nc2nc(Nc3cc(C)[nH]n3)c3cc(OC)c(OC)cc3n2)cc1	–	–	2.93	1.7	2.89	4.48	2.26	3.74	2.92	–	–	–	1.29	0.441	1.31	1.44	1.01	2	1.35	–
COC/N=C(\NC#N)NCOC	> 100	> 100	> 100	> 95.8	> 100	> 100	> 100	> 100	> 100	> 100	–	–	–	–	–	–	–	–	–	–
C=CC(C)(C)n1cc(C2=C(O)C(=O)C(c3cn(C(C)(C)C=C)c4ccccc34)=C(O)C2=O)c2ccccc21	34.5	> 31.5	18.9	11.2	8.5	13	4.48	4.45	8.15	10.4	–	–	–	–	–	–	–	–	–	–
O=C(NN1C(=O)CSC1c1cccc(Cl)c1)C(O)c1ccccc1 (stereo unspecified)	> 100	–	> 100	> 100	> 100	> 100	> 100	> 100	> 100	> 100	> 100	–	> 100	> 100	> 100	67.9	33.8	> 100	> 100	59.2
CO[C@H]1/C=C/O[C@@]2(C)Oc3c(C)c(O)c4c(O)c(c(/C=N/N5CCN(C)CC5)c(O)c4c3C2=O)NC(=O)/C(C)=C\C=C\[C@H](C)[C@H](O)[C@@H](C)[C@@H](O)[C@@H](C)[C@H](OC(C)=O)[C@@H]1C	> 100	–	–	–	> 100	–	> 100	> 100	–	–	–	–	–	–	–	–	–	–	–	–
O=c1cc(-c2ccccc2)[nH]c2cc(F)cc(F)c12	–	> 100	> 100	> 100	> 100	35.3	–	> 100	> 100	> 100	–	–	–	–	–	–	–	–	–	–
CN/N=C(/c1nc2ccc([N+](=O)[O-])cc2[nH]c1=O)C(O)c1ccc(C(O)/C(=N\NC)c2nc3ccc([N+](=O)[O-])cc3[nH]c2=O)cc1 (stereo unspecified)	> 100	53.5	> 100	> 100	> 100	–	> 100	> 100	> 100	> 100	–	–	–	–	–	–	–	–	–	–
COc1ccc(-c2cnnn2-c2nonc2-n2cccc2)cc1OC	23	15.4	–	–	> 100	11.3	> 100	> 100	> 100	–	2.95	3.09	–	–	3.28	2.32	3.97	17.8	8.06	–
CC(=O)c1ccc(NC(=O)C(=O)C(C(=O)/C=C/c2ccccc2)C2OC(=O)c3ccccc32)cc1 (stereo unspecified)	> 100	> 100	> 100	> 100	> 100	> 100	–	> 100	> 100	> 100	–	–	–	–	–	–	–	–	–	–
CC(=O)c1cccc(NC(=O)C(=O)c2c(O)c3ccccc3oc2=O)c1	> 100	–	> 100	> 100	> 100	> 100	> 100	> 100	> 100	> 100	–	–	–	–	–	–	–	–	–	–
CC1(C)OC(=S)N(c2ccccc2)C12C=Cc1cc3ccccc3nc1S2 (stereo unspecified)	–	> 100	> 100	> 100	> 100	> 100	> 100	> 100	> 100	> 100	–	–	–	–	–	–	–	–	–	–
